Test results taken from US8153557B2, “Agriculturally useful compositions” (priority 2006, dated 2012).

Columns and labels:
[1] = Precipitation of Cloquintocet-mexyl hydrate in emulsified concentrate (EW) of Example One; assay type: physicochemical; conditions: EW of Table E1: Aromatic 200 15.3, n-butyl lactate 15.3, ATLOX 4914 1.4, Cloquintocet-mexyl 4.2, ATLAS G-5000 2.2, water 61.6 weight percent
Procedure: The Following Items where Mix Together (See Table E1). [table] The Cloquintocet-mexyl was dissolved into a mixture of Aromatic 200 and n-butyl lactate. The emulsifiers were then mixed into the mixture. Finally, water was added and the mixture was turned into a emulsified concentrate (EW) by mechanical stirring. Precipitation of Cloquintocet-mexyl hydrate was not observed.

[2] = Precipitation of Cloquintocet-mexyl hydrate from A200, BL or A200+BL solutions after addition of water (Example Two); assay type: physicochemical; parameters: key to Cloquintocet-mexyl hydrate precipitation: “P” means that Cloquintocet-mexyl hydrate precipitated from the mixture.; “S” means that Cloquintocet-mexyl hydrate did not precipitated from the mixture; conditions: about 10 weight percent water added, 4° C.
Procedure: CQC was dissolved into A200, BL, or a mixture of A200+BL. Thereafter, about 10 weight percent water was added to each sample based on the weight of the sample (A200+BL+CQC). Each sample was prepared at 4° C.

CCCCCC(C)OC(=O)COc1ccc(Cl)c2cccnc12 (stereo not shown) [CQC, Cloquintocet-mexyl]
S: Cloquintocet-mexyl hydrate precipitation ([2]; CQC 3 wt %, BL 100%) | Cloquintocet-mexyl hydrate precipitation ([2]; CQC 4 wt %, A200 100%) | Cloquintocet-mexyl hydrate precipitation ([2]; CQC 5 wt %, BL 100%) | Cloquintocet-mexyl hydrate precipitation ([2]; CQC 6 wt %, A200 100%) | Cloquintocet-mexyl hydrate precipitation ([2]; CQC 12 wt %, A200 (50%) + BL (50%)) | Cloquintocet-mexyl hydrate precipitation ([2]; CQC 14 wt %, A200 (50%) + BL (50%))
up to 14 weight percent: CQC content kept in solution when mixed with water ([2]; 50/50 mixture of A200 and BL)
not observed: Precipitation of Cloquintocet-mexyl hydrate [1]
P: Cloquintocet-mexyl hydrate precipitation ([2]; CQC 7 wt %, BL 100%) | Cloquintocet-mexyl hydrate precipitation ([2]; CQC 8 wt %, A200 100%) | Cloquintocet-mexyl hydrate precipitation ([2]; CQC 9 wt %, BL 100%) | Cloquintocet-mexyl hydrate precipitation ([2]; CQC 10 wt %, A200 100%) | Cloquintocet-mexyl hydrate precipitation ([2]; CQC 11 wt %, BL 100%) | Cloquintocet-mexyl hydrate precipitation ([2]; CQC 12 wt %, A200 (12%) + BL (88%)) | Cloquintocet-mexyl hydrate precipitation ([2]; CQC 12 wt %, A200 (88%) + BL (12%)) | Cloquintocet-mexyl hydrate precipitation ([2]; CQC 13 wt %, BL 100%) | Cloquintocet-mexyl hydrate precipitation ([2]; CQC 14 wt %, A200 (12%) + BL (88%)) | Cloquintocet-mexyl hydrate precipitation ([2]; CQC 14 wt %, A200 (88%) + BL (12%)) | Cloquintocet-mexyl hydrate precipitation ([2]; CQC 15.5 wt %, A200 100%) | Cloquintocet-mexyl hydrate precipitation ([2]; CQC 15.5 wt %, A200 (12%) + BL (88%)) | Cloquintocet-mexyl hydrate precipitation ([2]; CQC 15.5 wt %, A200 (50%) + BL (50%)) | Cloquintocet-mexyl hydrate precipitation ([2]; CQC 15.5 wt %, A200 (88%) + BL (12%)) | Cloquintocet-mexyl hydrate precipitation ([2]; CQC 15.5 wt %, BL 100%)
less than 7 weight percent: CQC content at which Cloquintocet-mexyl hydrate is kept in solution when mixed with water ([2]; A200(100%)) | CQC content at which Cloquintocet-mexyl hydrate is kept in solution when mixed with water ([2]; BL(100%))
